The text below walks through data of patent US20120270774A1, “MACROCYCLIC COMPOUNDS, COMPOSITIONS COMPRISING THEM AND METHODS FOR PREVENTING OR TREATING HIV INFECTION” (Yissum Research Development Company of the Hebrew …, priority 2009, published 2012).

What is called Tmax is the time at which the peak concentration occurs. The Cmax is the maximum level reached in the sampled fluid or tissue. For orientation: AUC means the area under the concentration-time curve, a measure of exposure.

In data set [1] the test system is intestinal brush border enzymes. In words: Brush border membrane vesicles (BBMV) stability. The data set is classed as in vitro ADME, Wistar rats. Particulars: incubation in BBMVs at 37° C. As for the experimental part: Brush border membrane vesicles (BBMVs) were prepared from combined duodenum, jejunum, and upper ileum by a Ca^+2 precipitation method ([…]., 1997., Biochim Biophys Acta 1323, 45-56, […] et al. 2003., Biochem Biophys Res Commun 301, 8-12). The intestines of 5 male Wistar rats, 200-250 gr, were rinsed with ice cold 0.9% NaCl and freed of mucus; the mucosa was scraped off the luminal surface with glass slides and put immediately into buffer containing […] and 10 mM Tris-HCl (pH 7.5, 4° C.) and then homogenated (Polytron PT 1200, Kinematica AG, Switzerland). CaCl2 was added to a final concentration of 10 mM. The homogenate was left shaking for 30 min at 4° C. and then centrifuged at 10,000 g for 10 min. The supernatant was then centrifuged at 48,000 g for 30 min and an additional two purification steps were undertaken by suspending the pellet in 300 mM mannitol and 10 mM Hepes/Tris (pH 7.5) and centrifuging at […]. Purification of brush border membranes was assayed using the brush border membrane enzyme markers gamma-glutamyl transpeptidase (GGT), leucine amino peptidase (LAP) and alkaline phosphatase. During the course of these studies, enrichment in brush border membrane enzymes varied between 13- and 18-fold. The enzymatic reaction was performed as previously reported (Ovadia et al., 2009, Bioorg Med Chem 18, 580-589). […]

The nature of data set [2]: Pharmacokinetics of oral CG-1 with or without ritonavir.
Method: The pharmacokinetic profile of CG-1 was studied following intravenous (IV) and per-os (PO) administration to rats. Studies were performed in conscious Wistar male rats. An indwelling cannula was implanted into the left jugular vein 24 hours before the pharmacokinetic experiment to allow full recovery of the animals from the surgical procedure. Animals (n=5) received an intravenous (IV) bolus dose of 1 mg/kg of CG-1 or 10 mg/kg by oral gavage (n=5), CG-1 was dissolved in water. […] CG-1 administration. Plasma was separated by centrifugation (4000 g, 5 min, 4° C.) and stored at −70° C. pending analysis. A non-compartmental pharmacokinetic approach was used to compare pharmacokinetic profiles obtained following different modes of administration and to calculate bioavailability values. All calculations were performed utilizing WinNonlin® 5.0.1 software (Pharsight Corporation, Mountain View, Calif., USA).
The pharmacokinetic tests were repeated as above with the addition of ritonavir to the oral administration of CG-1. The study included three groups; the first group received 10 mg/kg of CG-1 in aqueous solution, the second one received an emulsion of 10 mg/kg of CG-1 and 10 mg/kg of ritonavir and the third group received CG-1 in the same emulsion without ritonavir.
A short description of data set [3]: Pharmacokinetic profile of CG-1 following IV and PO administration.
Method: Rats were kept in a light-controlled room (light from 7:00 to 19:00) and were maintained on laboratory chow and water ad libitum.
The pharmacokinetic profile of CG-1 was studied following intravenous (IV) and per-os (PO) administration to rats. Studies were performed in conscious Wistar male rats. An indwelling cannula was implanted into the left jugular vein 24 hours before the pharmacokinetic experiment to allow full recovery of the animals from the surgical procedure. Animals (n=5) received an intravenous (IV) bolus dose of 1 mg/kg of CG-1 or 10 mg/kg by oral gavage (n=5), CG-1 was dissolved in water. […] Plasma was separated by centrifugation (4000 g, 5 min, 4° C.) and stored at −70° C. pending analysis. A non-compartmental pharmacokinetic approach was used to compare pharmacokinetic profiles obtained following different modes of administration and to calculate bioavailability values. All calculations were performed utilizing WinNonlin® 5.0.1 software (Pharsight Corporation, Mountain View, Calif., USA).
Non-compartmental pharmacokinetic analysis was performed using WinNonlin software, standard.
Data set [4] deals with pseudo typed viruses that express VSV-gp instead of gp-120. Type of data set: cell-based.
Data set [5] can be described thus: Permeability ex-vivo, Ussing side by side diffusion chamber. The data set is classed as in vitro ADME, Wistar rats. To be noted: Ussing model.
The test system of the next data set is HIV-1 strand HXB2. In words: HIV-1 infection inhibition, MAGI assay. The data set is classed as cell-based. Particulars: for effect on HIV-1 infection (in words): MAGI assay, cultured cells, μM range. As for the experimental part: Hela cells were obtained from ATCC, (Manassas, Va., USA) and then grown in 75 cm2 flasks with approximately 0.5×10^6 cells/flask at 37° C. in 5% CO2 atmosphere and at a relative humidity of 95%. The culture growth medium consisted of Dulbecco's Modified Eagle Medium (DMEM) supplemented with 10% heat-inactivated fetal bovine serum (FBS), 1% nonessential amino acids. The medium was replaced every other day. Titration of HIV-1 strand HXB2 in the absence or presence of the inhibitor was carried out by the multinuclear activation of a galactosidase indicator (MAGI) assay, similarly to the procedure described by Kimpton and […] (Virol. 66, 2232, 1992). Briefly, HeLa-CD4+beta-gal cells were transferred into 96-well plates at 15×10^3 cells per well. On the following day, the cells were infected with 50 μl of serially diluted virus in the presence of […] of DEAE-dextran (Pharmacia, Sweden). Two days post-infection, cultured cells were fixed with 1% formaldehyde and 0.2% glutaraldehyde in PBS. Following intensive wash with PBS, cells were stained with a solution of 4 mM potassium ferrocyanide, 4 mM potassium ferricyanide, 2 mM MgCl2 and 0.4 mg/ml of X-Gal (Ornat, Israel). Blue cells were counted under a light microscope. According to a slightly different procedure, the assay consisted of CD4 expressing Hela P4 cells containing the β-galactosidase reporter gene placed downstream […]. the HIV-LTR promotor. These cells were seeded 24 hours prior to viral infection at a density of 5×10^5 […] in 24 well culture plates (TPP model by Beyneix). 50 μL of virus solution prepared from CEM infected cells' supernatant, were incubated for 1 hour with the assayed peptides at the required concentrations, at 4° C. 10 μg of anti CD4 monoclonal antibodies 13B8.2 or […] were used as control. After incubation the virus solution was diluted to a total volume of 1 ml and was added to the Hela P4 cells. The cells were incubated at these conditions for 3 days after which their infection rate was assayed according to the β-galactosidase activity in the cells extract. The cells were washed well, harvested and disintegrated in a buffer containing 60 mM Na2HPO4, 40 mM NaH2PO4, 10 mM KCl, 1 mM MgSO4, 50 mM β-mercaptoethanol, 2.5 mM EDTA, 0.125% NP40, 0.125% triton, 20% glycerol, 0.2 mM PMSF and 100 U/ml approtinin. The cells extract was cleaned by centrifuge at 4° C. for 15 min at 13,000 rpm. β-galactosidase activity was determined by incubation of 150 μL of total cell extract at 37° C. for 2 hours in the presence of 6 mM ONPG (O-Nitrophenyl-β-D-galactopyranoside) in a buffer containing 80 mM Na2HPO4, 1 mM β-mercaptoethanol and 10 m MMgCl2, followed by absorption measurement at 410 nm. The β-galactosidase activity was normalized according to the total protein quantity in the assay.

The next data set deals with human liver microsomes. The data set is classed as in vitro ADME. The protocol:
The oxidative metabolism was evaluated in pooled liver microsomes of rats and humans with or without 3 μM of ketoconazole (CYP3A4 inhibitor) (Yang et al., 2005, Biopharm Drug Dispos 26, 387-402). The microsomes were purchased from BD Biosciences (Woburn, Mass.). […] The incubation mixture (3 ml) was prepared in triplicate for each species in a 0.1 m potassium phosphate buffer (pH 7.4) containing 1 μM of substrate, 0.5 μM CYP enzymes, 1.8 mM glucose-6-phosphate and 0.4 units/ml glucose-6-phosphate dehydrogenase. After a 5 min preincubation at 37° C., the reaction was initiated by adding β-NADPH (0.15 mM final concentration). Aliquots of 0.25 ml were taken at 0, 15 and 30 min and placed into 3 volumes of icecold acetonitrile (containing an internal standard) to terminate the reaction. The samples were vortexed and centrifuged at 10000 RPM for 8 min to collect supernatant for sample analysis.

The mark [6] stands for this setting: PO 10 mg/kg with RTV 10 mg/kg (emulsion).

The structures appear in SMILES notation.

As to `N=C(N)NCCCC1NC(=O)CCCCCC(=O)NC(Cc2ccccc2)CN(CC(N)=O)C1=O` (centres unmarked) [CG-1], the “stability to enzymatic degradation in BBMVs” value in data set [1] was “metabolically stable and is not degraded”. In data set [2] (setting [6]), the Oral bioavailability was 21±3%, the T1/2 was 93 ± 8 min and the Tmax stood at 18 ± 2 min. In data set [2] (PO 10 mg/kg, without ritonavir), the Oral bioavailability amounted to 7.3±1.6%, the T1/2 turned out to be 73 ± 6 min and the time of peak concentration (Tmax) came to 18 ± 1.5 min. The “Cmax increase when ritonavir was added” value in data set [2] (with vs without ritonavir) is reported as 3 fold. Further, in data set [3] (IV bolus, 1 mg/kg), the peak concentration (Cmax) turned out to be 102 ± 19 ng/mL and the time to peak (Tmax) is on record as 5 min. In data set [3] (PO 10 mg/kg vs IV 1 mg/kg), this compound gave an Oral bioavailability of around 10%. Besides, in data set [3] (PO, 10 mg/kg oral gavage), the AUC came out at 21770 ± 63 ng·min/mL, the Cmax worked out at 866 ± 76 ng/mL and the Tmax came out at 18 min. In data set [3] (printed in the PO row), this compound had a CI of 14.53 ± 0.33 mL/min/kg and a Vss of 0.6 L/kg. For the same compound, the “infection inhibition of VSV-gp pseudo typed viruses” value in data set [4] is on record as “did not have any effect”. In data set [5], the “permeability coefficient (Papp) ex-vivo compared with the other analogs” value is given as “significantly higher than the other analogs”. In addition, the “transport in the distal regions” value in data set [5] (distal regions (ileum, colon)) was “significantly lower”. Also, the “transport in the jejunum” value in data set [5] (jejunum) was “significantly higher”. The “effect on HIV-1 infection (in words)” value in the data set with HIV-1 strand HXB2 is given as “low μM activity”. Moreover, in the data set with HIV-1 strand HXB2 (low μM range), the “inhibition of viral infection” value was above 80%. In addition, in the data set on human liver microsomes, the “oxidative metabolism in liver microsomes” value was “partially metabolized”. In the data set on human liver microsomes (human, microsomes), the “microsomal stability with ketoconazole” value is “significantly improved its stability”.
On to `N=C(N)NCCCC1NC(=O)CCCCCC(=O)NC(Cc2ccc(O)cc2)CN(CC(N)=O)C1=O` (centres unmarked) [MC-1], for which the “effect on HIV-1 infection (in words)” value in the data set with HIV-1 strand HXB2 is listed as “did not reduce the infectivity”.
Take `N=C(N)NCCCC1CN(CC(N)=O)C(=O)C(Cc2ccccc2)NC(=O)CCCCCC(=O)N1` (centres unmarked) [SC-1]: the “effect on HIV-1 infection (in words)” value in the data set with HIV-1 strand HXB2 is “weak inhibitory effect”.
